Experimental findings from patent US11898167B2, “Reversible stencils for fabricating micro-tissues” (The Regents of the University of California, priority 2014, dated 2024) are described below.

“Also recorded” adds a separate entry of the source.

Holding throughout (format): cell-based, human
Assay [1] has as its system micro-muscle heart tissues. Put plainly: Calcium dose response of twitch force of micro-muscles. To be noted: increasing extracellular calcium concentrations (2 mM, 6 mM shown). From the text:
Representative micro-muscle heart tissues were generated by seeding small numbers of cardiomyocytes into stencil microwells as described herein. Separate micro-muscles were then contacted with different extracellular calcium concentrations.

Assay [2] concerns iPS-CM two-dimensional monolayers. Put plainly: Beating of iPS-CM in unpatterned two-dimensional monolayers/cell clusters, drug response.
In a further assay the test system is MYBPC3−/− micro-tissues. Nature of the assay: Beat-rate response of MYBPC3 null iPS-CM micro-tissues. On the procedure: (§1) The beating rate, maximum contraction velocity, and spatial coordination of beating within micro-tissues was assessed visually, and quantified using image processing software was used, such as the custom block-matching optical flow software, described in a publication that is currently under review (Huebsch 2014). Micro-tissue response to drugs, including verapamil and isoproterenol, was tested using an automated inverted microscope (Zeiss).
To model hypertrophic cardiomyopathy, MYPBC3 was knocked out of wild type iPS.

For assay [3], the system named is wild type iPS-CM micro-tissues. Nature of the assay: Beating (beat rate, contraction velocity) of wild type iPS-CM three-dimensional micro-tissues in stencil microwells, drug response. The procedure:
as §1
Beginning five days after seeding cells into micro-tissue molds, the beating parameters of spontaneously beating (non-paced) iPS-CM micro-tissues were analyzed. […] Despite this difference, micro-tissues maintained in RPMI media with B27 supplement all beat at nearly the same rate (FIG. 4B). Micro-tissues incubated in StemPro 34 media beat with a slightly more variable rate from one tissue to the next, but at a basal rate closer to the physiological levels of 1 Hz for human cells (data not shown).

The test system of assay [4] is iPS-CM micro-tissues harboring the GCaMP6f calcium indicator. Nature of the assay: Calcium flux (GCaMP6f reporter) in iPS-CM micro-tissues. Also on record: dose or concentration left out as unconfirmed. The conditions noted are these: 1 week and 2 week micro-tissues, paced at 1 Hz; isoproterenol. On the procedure:
Induced pluripotent stem cells genetically modified to express the GCaMP6f calcium indicator gene product, and then differentiated into cardiomyocytes (iPS-CM). Micro-tissues were made with iPS-CM harboring the GCaMP6f calcium indicator, to allow continuous recording of calcium flux as illustrated in FIG. 8.
FIG. 8D-8E illustrate the functional maturation of iPS-CM-derived micro-tissues (μHT, micro-heart tissues). After 1 or 2 weeks of incubation in the stencil microwells, the micro-tissues were paced at 1 Hz for analysis of inotropy.

For assay [5], the system named is heterozygous MYPBC3+/− iPS micro-tissues. Put plainly: Beat-rate response of heterozygous MYBPC3 iPS-CM micro-tissues. To be noted: first daily 10 uM dose. On the procedure:
as §1
FIGS. 4G and 4H further illustrate that micro-tissues generated from mutant cells are excellent models of human diseases. Micro-tissues were generated within the dogbone-shaped microwells described herein from three different cell types: wild type MYPBC3^+/+ iPS, heterozygous MYPBC3^+/− iPS, and null MYPBC3^−/− iPS. […] However, upon repeated exposure to isoproterenol, the differences heterozygous and null MYPBC3 tissue responses became less significant (FIG. 4H).

Turning to `[Ca+2]` [calcium], the twitch force result in assay [1] is reported as “dramatically increases”.
For `CC(C)NCC(O)c1ccc(O)c(O)c1` (stereo not shown) [isoproterenol], the beat-rate response result in assay [2] (2D cultured iPS-CM monolayers, non-paced, 10 μm isoproterenol) was “erratic/unpredictable responses; also recorded: varies significantly from one test to the next; also recorded: large variance amongst samples”; in assay [3] (3D micro-tissues, wild type iPS-CM, non-paced, 10 μm isoproterenol), “highly reproducible; also recorded: robust increase in beat-rate response”. For the same compound, the “intensity of beating (inotropic response)” value in assay [2] (2D monolayers, 10 μm isoproterenol) was “did not affect the intensity of beating”. Besides, the “cessation of beating at high doses” value in assay [2] (2D-cultured cells and cell clusters, high doses) is “stopped beating”; in assay [3] (3D-cultured micro-tissues within stencil wells, high doses), “no such effects were observed”. Moreover, the “beating frequency in response to isoproterenol” value with MYBPC3−/− micro-tissues (null MYPBC3−/− micro-tissues, first daily 10 uM dose) is “returned to a lower beating frequency significantly faster”; in assay [3] (wild type MYPBC3+/+ micro-tissues, first daily 10 uM dose) it was “greatest increase in beating frequency”; in assay [5] it was “less than the wild type MYPBC3 tissues but greater than the null MYPBC3 tissues”. For the same compound, the “beat-rate (chronotropic response)” value in the assay on MYBPC3−/− micro-tissues (short-term (30 minutes) and chronic (5 days of daily dosing) exposure, 10 μm isoproterenol, compared with wild type) is reported as “blunted decrease in beat-rate”. The “intensity of beating, measured via the maximum contraction velocity (inotropic response)” value in assay [3] (3D micro-tissues, 10 μm isoproterenol) is reported as “exhibit an inotropic response”. In addition, the calcium flux response entry in assay [4] is recorded as “responded to isoproterenol”.
`COc1ccc(CCN(C)CCCC(C#N)(c2ccc(OC)c(OC)c2)C(C)C)cc1OC` (stereo not shown) [verapamil]: the “IC50 value (beating)” value in assay [3] (stencil micro-tissues compared to the same cells in non-patterned 2D monolayers, 30 minutes per dose) is listed as “higher IC50 value”.
